This is an account of results in patent publication US20240336604A1 (THE UNITED STATES OF AMERICA, AS REPRESENTED BY THE …, priority 2021, published 2024).

Common to all, as to format: cell-based
Experiment [1] concerns the target T1, D3 DAR (Homo sapiens, UniProt P35462). The experiment can be described thus: DiscoverX D3 DAR β-arrestin recruitment assay. Further details: host or cells: CHO. The settings on record: for IC50: EC80 concentration of DA (30 nM), read-out: D3 DAR IC50; for Emax / D3 DAR Imax: Imax=maximum inhibition, EC80 DA (30 nM). An excerpt:
A D3 DAR β-arrestin cell line from DiscoverX (Fremont, CA) was used as described in the protocol below (Table 2). A CHO cell line engineered to overexpress the D3 DAR fused with a small 42-amino acid fragment of β-galactosidase called ProLink™ and a fusion protein consisting of β-arrestin and a larger N-terminal deletion mutant of β-galactosidase was used (DiscoverX catalogue number 93-0579C2). When the D3 DAR is activated by dopamine, it stimulates binding of β-arrestin to ProLink-tagged D3 DARs, and the two complementary parts of β-galactosidase form a functional enzyme. When substrate (PathHunter® Detection reagent, DiscoverX 93-0001) is added, β-galactosidase hydrolyzes it and generates a chemiluminescent signal.

Experiment [2] concerns the target T1, D3 DAR. As to the kind of experiment: Go BRET activation assay, D3 DAR. The conditions noted are these: EC80 DA (30 nM); for Emax: 5 min, read-out: D3 Go BRET Imax. As for the experimental part: Briefly, HEK293T cells transiently expressing either the D2 DAR or D3 DAR and GαoA-Rluc8, untagged-β1, and mVenus-γ2 were harvested with EBSS, plated in 96-well white plates at 20,000 cells/well in DPBS and incubated at RT for 45 min. […] BRET signal was determined by quantifying and calculating the ratio of the light emitted by mVenus (525 nm) over that emitted by RLuc8 (485 nm) using a PHERAstar FSX Microplate Reader (BMG Labtech).

The target in a further experiment is D2 DAR (Homo sapiens, UniProt P14416). As to the kind of experiment: DiscoverX D2 DAR β-arrestin recruitment assay. The arrangement: host or cells: CHO. The settings on record: EC80 concentration of DA (1 μM). An excerpt: For a secondary-screen and selectivity assays, DAR PathHunter®-arrestin GPCR cell lines from DiscoverX (Fremont, CA) were used. In the D2 DAR PathHunter®-arrestin GPCR cell line, the D2 DAR is overexpressed and fused with a small 42-amino acid fragment of β-galactosidase called ProLink™ on a CHO cellular background expressing a fusion protein of β-arrestin and a larger N-terminal deletion mutant of β-galactosidase (“enzyme acceptor”). When the D2 DAR is activated by dopamine, it stimulates binding of β-arrestin to the ProLink-tagged DAR and the two complementary parts of β-galactosidase form a functional enzyme. When substrate (PathHunter™ Detection reagent) is added, β-galactosidase hydrolyzes it and generates a chemiluminescent signal.
D2 DAR, sequence (P14416 whole entry, the tested form may be a part): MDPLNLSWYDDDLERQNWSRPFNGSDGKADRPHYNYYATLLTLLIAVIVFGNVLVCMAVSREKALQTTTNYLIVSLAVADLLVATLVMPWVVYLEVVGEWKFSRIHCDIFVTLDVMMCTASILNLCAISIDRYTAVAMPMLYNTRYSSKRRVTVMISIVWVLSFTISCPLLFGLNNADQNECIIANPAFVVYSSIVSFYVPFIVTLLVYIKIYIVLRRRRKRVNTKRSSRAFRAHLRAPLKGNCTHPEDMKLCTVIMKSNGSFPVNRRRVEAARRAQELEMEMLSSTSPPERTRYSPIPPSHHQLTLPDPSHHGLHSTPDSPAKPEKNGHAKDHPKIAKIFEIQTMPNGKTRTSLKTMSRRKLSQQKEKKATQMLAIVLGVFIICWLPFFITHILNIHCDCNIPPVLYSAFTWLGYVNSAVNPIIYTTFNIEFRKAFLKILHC

T1 sequence (P35462 whole entry, the tested form may be a part): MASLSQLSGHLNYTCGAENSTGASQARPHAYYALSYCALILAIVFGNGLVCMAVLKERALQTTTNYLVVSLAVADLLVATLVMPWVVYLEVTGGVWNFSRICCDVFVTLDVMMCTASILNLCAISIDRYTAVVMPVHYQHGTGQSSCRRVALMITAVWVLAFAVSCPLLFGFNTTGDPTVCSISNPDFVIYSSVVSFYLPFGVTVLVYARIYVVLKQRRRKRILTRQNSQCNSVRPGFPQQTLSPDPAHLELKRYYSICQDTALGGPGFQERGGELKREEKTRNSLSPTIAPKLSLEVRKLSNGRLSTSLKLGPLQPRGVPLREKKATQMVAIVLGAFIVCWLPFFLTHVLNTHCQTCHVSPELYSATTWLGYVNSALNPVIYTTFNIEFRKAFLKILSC

On to `Cc1ccc(NS(=O)(=O)c2c(C)[nH]c(C)c2C(=O)N2CCC2)cc1Cl` [compound 6], for which the IC50 at D3 DAR [1] is 10 to 50 µM; against D3 DAR [2], 10 to 50 µM; against D2 DAR, over 100 µM. The Emax at D3 DAR [1] is 80 to 100%; at D3 DAR [2], over 100%. In addition, at D2 DAR, the “D2 DAR Imax” value is given as “NA (“NA” indicates not active)”.

As for `Cc1[nH]c(C)c(S(=O)(=O)Nc2cc(Cl)c(C(F)(F)F)c(Cl)c2)c1C(=O)N1CCC(F)(F)C1` [compound 35, N-(3,5-dichloro-4-(trifluoromethyl)phenyl)-4-(3,3-difluoropyrrolidine-1-carbonyl)-2,5-dimethyl-1H-pyrrole-3-sulfonamide], at D3 DAR [1], the IC50 is under 10 µM and the Emax was 80 to 100%. Besides, at D3 DAR [2], the Emax was in the range of 80 to 100% and the IC50 was under 1 µM. At D2 DAR, the “D2 DAR Imax” value was “NA (“NA” indicates not active)” and the concentration for half-maximal inhibition (IC50) was over 100 µM.

Consider `Cc1[nH]c(C)c(S(=O)(=O)N2CCC(F)(F)C2)c1C(=O)Nc1ccc(C(F)(F)F)c(Cl)c1` [compound 24], for which the IC50 at D3 DAR [1] is 50 to 100 µM; at D3 DAR [2], over 50 µM; on D2 DAR, over 100 µM. The “D3 DAR Imax” value at D3 DAR [1] is reported as “Curve Incomplete”. Further, at D2 DAR, the “D2 DAR Imax” value is given as “NA (“NA” indicates not active)”.

`Cc1[nH]c(C)c(S(=O)(=O)Nc2cccc(Cl)c2)c1C(=O)N1CCCC1` [compound 14]: on D3 DAR [1], the concentration for half-maximal inhibition (IC50) was 10 to 50 µM and the Emax lay within 80 to 100%. At D3 DAR [2], the Emax was over 100% and the half-inhibitory concentration (IC50) was 1 to 10 µM. Moreover, on D2 DAR, the “D2 DAR Imax” value is recorded as “NA (“NA” indicates not active)” and the IC50 is over 100 µM.

For the compound `CCOC(=O)C1=NOC2(C1)C(=O)Nc1ccc(OC(F)(F)F)cc12` (stereo not drawn) [compound 45], at D3 DAR [1], the IC50 lay in the range of 10 to 50 µM and the “D3 DAR Imax” value is listed as “+ (A “+” is used to denote compounds with D3 DAR Imax (Imax=maximum inhibition) between 80% to 100%)”. Also, at D2 DAR, the “D2 DAR Imax” value is given as “NA (“NA” indicates not active)” and the half-maximal inhibitory concentration (IC50) was over 100 µM.

Regarding `Cc1[nH]c(C)c(S(=O)(=O)Nc2cc(Cl)cc(C(F)(F)F)c2)c1C(=O)N1CCC(F)(F)C1` [compound 40, N-(3-chloro-5-(trifluoromethyl)phenyl)-4-(3,3-difluoropyrrolidine-1-carbonyl)-2,5-dimethyl-1H-pyrrole-3-sulfonamide], the IC50 on D3 DAR [1] is 10 to 50 µM; against D3 DAR [2] it was 10 to 50 µM; on D2 DAR it was over 100 µM. For the same compound, the Emax on D3 DAR [1] was 80 to 100%; on D3 DAR [2] it was over 100%. Also, the “D2 DAR Imax” value at D2 DAR is recorded as “NA (“NA” indicates not active)”.

As for `CCc1ccc(NS(=O)(=O)c2c(C)[nH]c(C)c2C(=O)N2CCCC2)cc1Cl` [compound 8], the half-maximal inhibitory concentration (IC50) is 10 to 50 µM at D3 DAR [1], 1 to 10 µM against D3 DAR [2] and over 100 µM against D2 DAR. In addition, the Emax on D3 DAR [1] and on D3 DAR [2] was 80 to 100% each time. Also, on D2 DAR, the “D2 DAR Imax” value is listed as “NA (“NA” indicates not active)”.

As for `Cc1[nH]c(C)c(S(=O)(=O)Nc2ccc(C(F)(F)F)c(Cl)c2)c1C(=O)N1CC(F)(F)C(F)(F)C1` [compound 27, N-(3-chloro-4-(trifluoromethyl)phenyl)-2,5-dimethyl-4-(3,3,4,4-tetrafluoropyrrolidine-1-carbonyl)-1H-pyrrole-3-sulfonamide], on D3 DAR [1], the IC50 was in the range of 10 to 50 µM and the Emax was 80 to 100%. Besides, at D3 DAR [2], the Emax is over 100% and the IC50 is 1 to 10 µM. Further, at D2 DAR, the “D2 DAR Imax” value is “NA (“NA” indicates not active)” and the concentration for half-maximal inhibition (IC50) was over 100 µM.

For the compound `CCNC(=O)c1c(C)[nH]c(C)c1S(=O)(=O)Nc1ccc(C(F)(F)F)c(Cl)c1` [compound 33, 4-(N-(3-chloro-4-(trifluoromethyl)phenyl)sulfamoyl)-N-ethyl-2,5-dimethyl-1H-pyrrole-3-carboxamide], at D3 DAR [1], the IC50 is under 10 µM and the Emax is 80 to 100%. Moreover, on D3 DAR [2], the Emax is over 100% and the half-maximal inhibitory concentration (IC50) lay in the range of 10 to 50 µM. At D2 DAR, the “D2 DAR Imax” value is listed as “NA (“NA” indicates not active)” and the concentration for half-maximal inhibition (IC50) was over 100 µM.

For `Cc1[nH]c(C)c(S(=O)(=O)Nc2ccc(C(F)(F)F)c(Cl)c2)c1C(=O)O` [compound 22, 4-(N-(3-chloro-4-(trifluoromethyl)phenyl)sulfamoyl)-2,5-dimethyl-1H-pyrrole-3-carboxylic acid], on D3 DAR [1], the IC50 was 50 to 100 µM and the “D3 DAR Imax” value is “Curve Incomplete”. On D3 DAR [2], the Emax was over 100% and the IC50 lay within 10 to 50 µM. At D2 DAR, the “D2 DAR Imax” value is recorded as “NA (“NA” indicates not active)” and the half-inhibitory concentration (IC50) was over 100 µM.

As for `Cc1ccc(NS(=O)(=O)c2c(C)[nH]c(C)c2C(=O)N2CCCC2)cc1` [compound 10], on D3 DAR [1], the half-inhibitory concentration (IC50) fell in the range of 10 to 50 µM and the Emax lay within 80 to 100%. On D3 DAR [2], the IC50 is over 50 µM. On D2 DAR, the “D2 DAR Imax” value is “NA (“NA” indicates not active)” and the IC50 was over 100 µM.

With `CCc1ccc(NS(=O)(=O)c2c(C)[nH]c(C)c2C(=O)N2CCCC2)cc1` [compound 15], at D3 DAR [1], the IC50 was under 10 µM and the Emax is 80 to 100%. For the same compound, on D3 DAR [2], the Emax fell in the range of 80 to 100% and the IC50 is 10 to 50 µM. Also, at D2 DAR, the “D2 DAR Imax” value is recorded as “NA (“NA” indicates not active)” and the concentration for half-maximal inhibition (IC50) was over 100 µM.

With `O=C(c1c(S(=O)(=O)Nc2ccc(C(F)(F)F)c(Cl)c2)c[nH]c1C(F)(F)F)N1CCCC1` [compound 37], at D3 DAR [1], the IC50 lay in the range of 10 to 50 µM and the Emax lay within 80 to 100%. The concentration for half-maximal inhibition (IC50) against D3 DAR [2] was over 50 µM. For the same compound, at D2 DAR, the “D2 DAR Imax” value is reported as “NA (“NA” indicates not active)” and the concentration for half-maximal inhibition (IC50) was over 100 µM.

Turning to “N-(3-chloro-4-(trifluoromethyl)phenyl)-2,5-dimethyl-4-(morpholine-4-carbonyl)-1H-pyrrole-3-sulfonamide [compound 30]”, at D3 DAR [1], the IC50 is over 100 µM and the “D3 DAR Imax” value was “Curve Incomplete”. In addition, on D2 DAR, the “D2 DAR Imax” value is reported as “NA (“NA” indicates not active)” and the IC50 is over 100 µM.

For the compound `Cc1[nH]c(C)c(S(=O)(=O)Nc2ccc(Cl)c(C(F)(F)F)c2)c1C(=O)N1CCCC1` [compound 7], on D3 DAR [1], the IC50 was under 10 µM and the Emax lay within 80 to 100%. At D3 DAR [2], the Emax was over 100% and the concentration for half-maximal inhibition (IC50) lay within 1 to 10 µM. At D2 DAR, the “D2 DAR Imax” value is “NA (“NA” indicates not active)” and the half-inhibitory concentration (IC50) was over 100 µM.

Regarding `Cc1ccc(NS(=O)(=O)c2c(C)[nH]c(C)c2C(=O)N2CCC(F)(F)C2)cc1Cl` [Cmp. 2], at D3 DAR [1], the IC50 lay within 10 to 50 µM and the Emax was 80 to 100%. Further, at D3 DAR [2], the Emax was over 100% and the half-inhibitory concentration (IC50) lay within 10 to 50 µM. Besides, at D2 DAR, the “D2 DAR Imax” value is recorded as “NA (“NA” indicates not active)” and the concentration for half-maximal inhibition (IC50) was over 100 µM.

As to `Cc1[nH]c(C)c(S(=O)(=O)Nc2cc(Cl)c(C(F)(F)F)cc2Br)c1C(=O)N1CCC(F)(F)C1` [compound 41, N-(2-bromo-5-chloro-4-(trifluoromethyl)phenyl)-4-(3,3-difluoropyrrolidine-1-carbonyl)-2,5-dimethyl-1H-pyrrole-3-sulfonamide], on D3 DAR [1], the IC50 was under 10 µM and the Emax fell in the range of 80 to 100%. On D2 DAR, the “D2 DAR Imax” value is “NA (“NA” indicates not active)” and the IC50 was over 100 µM.
